Measured values from ChEMBL document CHEMBL5528066, “Discovery of Novel N-(Anthracen-9-ylmethyl) Benzamide Derivatives as ZNF207 Inhibitors Promising in Treating Glioma” (J Med Chem, 2024).
pIC50, pKd: −log10 of the molar value. Calls of active or inactive are those of the source. No cut-off for these calls is given here.

Legend:
[1] = Drug uptake in Sprague-Dawley rat blood at 10 to 90 ng/ml, po administered as single dose and measured after 8 hrs by LC-MS/MS analysis; assay type: ADME, organism-based; conditions: in vivo, dose 10-90 ng/ml
[2] = system: H4; test: Inhibition of sphere formation in human H4 cells assessed as fold reduction in sphere initiating frequency at 1 uM incubated for 10 days by microscopic analysis relative to control; assay type: functional; conditions: time 10 day
[3] = system: LN-229; test: Inhibition of cell migration in human LN-229 cells assessed as reduction in wound closure ability at 5 uM measured after 48 hrs by wound healing assay relative to control; assay type: functional
[4] = target: T1, BUB3-interacting and GLEBS motif-containing protein ZNF207 (Homo sapiens, UniProt O43670); test: Binding affinity to ZNF207 in human U-251MG cells assessed as thermal stabilization by measuring increase in melting temperature at 30 uM incubated for 3 hrs by CETSA; assay type: cell-based
T1 sequence (O43670 whole entry): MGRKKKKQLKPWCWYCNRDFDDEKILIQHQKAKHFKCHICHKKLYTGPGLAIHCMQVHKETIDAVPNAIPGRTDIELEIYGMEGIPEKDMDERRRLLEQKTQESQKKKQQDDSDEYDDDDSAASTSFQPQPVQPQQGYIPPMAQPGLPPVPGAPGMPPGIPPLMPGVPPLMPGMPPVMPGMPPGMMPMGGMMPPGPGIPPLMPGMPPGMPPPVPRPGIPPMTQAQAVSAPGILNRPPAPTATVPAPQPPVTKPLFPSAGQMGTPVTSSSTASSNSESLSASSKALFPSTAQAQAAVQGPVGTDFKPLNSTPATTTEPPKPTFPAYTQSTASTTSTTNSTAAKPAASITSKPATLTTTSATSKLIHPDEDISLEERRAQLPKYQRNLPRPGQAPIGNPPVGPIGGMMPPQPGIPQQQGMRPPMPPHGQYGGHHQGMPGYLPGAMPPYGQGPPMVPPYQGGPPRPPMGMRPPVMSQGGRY

[5] = system: LN-229; test: Antitumor activity against human LN-229 cells xenografted in BALB/c nude mouse assessed as reduction in proportion of Ki-67 positive cells at 15 to 45 mg/kg, po administered once a day and measured after 49 days by immunohistochemistry analysis; assay type: functional, organism-based; conditions: dose 15-45 mg/kg, time 49.0 day
[6] = system: MDR1; test: Apparent permeability across apical to basolateral side in MDCKII-MDR1 cells assessed as drug recovery at 1 uM incubated for 2 hrs by LC-MS/MS analysis; assay type: ADME, cell-based, Canis lupus familiaris; conditions: dog, MDCK-MDR1, read-out: Drug recovery
[7] = Toxicity in male C57BL/6 mouse assessed as change in cellular structure of kidney at 45 mg/kg, po administered once a day for 2 weeks by H and E staining based analysis; assay type: organism-based; conditions: in vivo, 336 h
[8] = Drug concentration in female Sprague-Dawley rat brain at 45 mg/kg, po measured after 8 hrs by LC-MS/MS analysis; assay type: ADME, organism-based; conditions: read-out: Ct
[9] = system: U-251; test: Inhibition of sphere formation in human U-251MG cells at 1 uM measured after 10 days in well containing 1 cells by microscopic analysis; assay type: functional, cell-based; conditions: time 10.0 day
[10] = system: U-251; test: Inhibition of sphere formation in human U-251MG cells at 4 uM measured after 10 days in well containing 10000 cells by microscopic analysis; assay type: functional, cell-based; conditions: time 10.0 day
[11] = system: LN-229; test: Inhibition of sphere formation in human LN-229 cells at 2 uM measured after 10 days in well containing 10000 cells by microscopic analysis; assay type: functional, cell-based; conditions: time 10.0 day
[12] = system: Hs 683; test: Inhibition of sphere formation in human Hs 683 cells at 1 uM measured after 10 days in well containing 10000 cells by microscopic analysis; assay type: functional, cell-based; conditions: time 10.0 day
[13] = system: H4; test: Inhibition of sphere formation in human H4 cells at 2 uM measured after 10 days in well containing 1 cells by microscopic analysis; assay type: functional, cell-based; conditions: time 10.0 day
[14] = system: U-251; test: Antiproliferative activity against human U-251MG cells assessed as inhibition of cell growth measured after 72 hrs by CCK-8 assay; assay type: functional, cell-based; conditions: U-251, 72 h
[15] = Toxicity in female C57BL/6 mouse assessed as change in cellular structure of kidney at 45 mg/kg, po administered once a day for 2 weeks by H and E staining based analysis; assay type: organism-based; conditions: in vivo, 336 h
[16] = system: LN-229; test: Inhibition of sphere formation in human LN-229 cells assessed as fold reduction in sphere initiating frequency at 8 uM incubated for 10 days by microscopic analysis relative to control; assay type: functional; conditions: time 10 day
[17] = target: T1, BUB3-interacting and GLEBS motif-containing protein ZNF207; test: Binding affinity to ZNF207 in human H4 cells assessed as thermal stabilization by measuring increase in melting temperature at 30 uM incubated for 3 hrs by CETSA; assay type: cell-based
[18] = system: LN-229; test: Inhibition of sphere formation in human LN-229 cells at 8 uM measured after 10 days in well containing 10000 cells by microscopic analysis; assay type: functional, cell-based; conditions: time 10.0 day
[19] = target: T1, BUB3-interacting and GLEBS motif-containing protein ZNF207; test: Binding affinity to human ZNF207 assessed as dissociation constant by SPR analysis
[20] = system: Hs 683; test: Induction of apoptosis in human Hs 683 cells at 1.25 uM incubated for 24 hrs by Annexin V-FITC/PI staining based flow cytometry analysis; assay type: functional, cell-based
[21] = system: H4; test: Inhibition of sphere formation in human H4 cells assessed as fold reduction in sphere initiating frequency at 4 uM incubated for 10 days by microscopic analysis relative to control; assay type: functional; conditions: time 10 day
[22] = system: MKN-45; test: Antiproliferative activity against human MKN-45 cells assessed as inhibition of cell growth incubated for 72 hrs by CCK-8 assay; assay type: functional, cell-based; conditions: MKN-45, 72 h
[23] = Toxicity in female C57BL/6 mouse assessed as change in cellular structure of heart at 45 mg/kg, po administered once a day for 2 weeks by H and E staining based analysis; assay type: organism-based; conditions: in vivo, 336 h
[24] = system: H4; test: Downregulation of SOX2 protein expression in human H4 cells at 2 to 4 uM incubated for 48 hrs by Western blot analysis; assay type: functional, cell-based; conditions: dose 2-4 µM
[25] = Drug concentration in male Sprague-Dawley rat brain at 45 mg/kg, po measured after 8 hrs by LC-MS/MS analysis; assay type: ADME, organism-based; conditions: read-out: Ct
[26] = Toxicity in male C57BL/6 mouse assessed as change in cellular structure of lung at 45 mg/kg, po administered once a day for 2 weeks by H and E staining based analysis; assay type: organism-based; conditions: in vivo, 336 h
[27] = system: U-251; test: Inhibition of sphere formation in human U-251MG cells at 8 uM measured after 10 days in well containing 10000 cells by microscopic analysis; assay type: functional, cell-based; conditions: time 10.0 day
[28] = system: LN-229; test: Antitumor activity against human LN-229 cells xenografted in BALB/c nude mouse assessed as tumor growth delay by measuring tumor volume at 45 mg/kg, po administered once a day and measured every 2 days for 49 days (reference value: 700 […]); assay type: functional; conditions: time 49 day
[29] = system: LN-229; test: Antitumor activity against human LN-229 cells xenografted in BALB/c nude mouse assessed as tumor growth delay by measuring tumor volume at 15 mg/kg, po administered once a day and measured every 2 days for 49 days (reference value: 700 […]); assay type: functional; conditions: time 49 day
[30] = system: LN-229; test: Inhibition of sphere formation in human LN-229 cells incubated for 168 hrs by microscopic analysis; assay type: functional, cell-based; conditions: LN-229, 168 h
[31] = system: Hs 683; test: Inhibition of sphere formation in human Hs 683 cells at 4 uM measured after 10 days in well containing 100 cells by microscopic analysis; assay type: functional, cell-based; conditions: time 10.0 day
[32] = system: MDR1; test: Apparent permeability across basolateral to apical side in MDCKII-MDR1 cells at 1 uM incubated for 2 hrs by LC-MS/MS analysis; assay type: ADME, cell-based, Canis lupus familiaris; conditions: dog, MDCK-MDR1
[33] = system: LN-229; test: Downregulation of SOX2 protein expression in human LN-229 cells at 2 to 4 uM incubated for 48 hrs by Western blot analysis; assay type: functional, cell-based; conditions: dose 2-4 µM
[34] = system: LN-229; test: Inhibition of sphere formation in human LN-229 cells at 8 uM measured after 10 days in well containing 100 cells by microscopic analysis; assay type: functional, cell-based; conditions: time 10.0 day
[35] = system: LN-229; test: Inhibition of sphere formation in human LN-229 cells at 2 uM measured after 10 days in well containing 10 cells by microscopic analysis; assay type: functional, cell-based; conditions: time 10.0 day
[36] = target: T1, BUB3-interacting and GLEBS motif-containing protein ZNF207; test: Binding affinity to ZNF207 in human H4 cells assessed as thermal stabilization by measuring melting temperature at 30 uM incubated for 3 hrs by CETSA (reference value: 48.9 degreeC); assay type: cell-based
[37] = system: LN-229; test: Inhibition of sphere formation in human LN-229 cells at 4 uM measured after 10 days in well containing 10 cells by microscopic analysis; assay type: functional, cell-based; conditions: time 10.0 day

N#CC1(C(=O)NCCC2CCN(Cc3ccccc3)CC2)CC2(Br)c3ccccc3C1c1ccccc12 (racemic)
Drug uptake [1]: Active | fold change (FC) [2]: 14.09 | inhibition at 5 µM [3]: 28.4% | ΔTm [4]: 5.2 °C | Activity [5]: Active | recovery at 2 h, 1 µM [6]: 96% | Activity [7]: Non-Toxic | concentration at 8 h [8]: 56.1 ng/g | inhibition [9]: Active | inhibition [10]: inactive | inhibition [11]: inactive | inhibition [12]: inactive | inhibition [13]: Active | pIC50 [14]: 4.88 | Activity [15]: Non-Toxic | fold change (FC) [16]: 107.58 | ΔTm [17]: 1.9 °C | inhibition [18]: inactive | pKd [19]: 7.17 | Activity [20]: Active | fold change (FC) [21]: 32.7 | pIC50 [22]: 5.42 | Activity [23]: Non-Toxic | Activity [24]: Active | concentration at 8 h [25]: 9.2 ng/g | Activity [26]: Non-Toxic | inhibition [27]: inactive | Activity [28]: 200 mm3 | Activity [29]: 280 mm3 | pIC50 [30]: 5.91 | inhibition [31]: Active | Papp B→A at 2 h, 1 µM [32]: 4.09 ×10⁻⁶ cm/s | Activity [33]: Active | inhibition [34]: Active | inhibition [35]: Active | Tm [36]: 50.8 °C | inhibition [37]: Active
